Here are results for 21 compounds from US20100286145A1, “ISOPHTHALAMIDE DERIVATIVES INHIBITING BETA-SECRETASE ACTIVITY” (CoMentis, Inc., priority 2007, published 2010).

Test [1] relates to Aβ production in Chinese hamster ovary cells that over-express human APP695 with the London and Swedish mutations. As to the kind of experiment: Cellular Aβ IC50 determination (Aβ40 sandwich ELISA). It is filed as cell-based. To be noted: Cricetulus griseus; cellular Aβ production; read-out: IC50. The method, boiled down: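 Aβ40 in media quantified by sandwich ELISA, normalized to control incubations and fitted with a 4-parameter IC50 model. Compounds dosed to a final concentration near 4 μM (0.4% DMSO) on CHO cells expressing human APP695 (London and Swedish mutants) seeded at 10% confluency.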
For orientation: In an ELISA, binding on a coated surface is turned into a signal by an enzyme label.

A further test has as its target memapsin 2 (Homo sapiens, UniProt P56817). Nature of the test: Inhibition of memapsin 2 beta-secretase activity (fluorogenic substrate FS-2). It is filed as biochemical. To be noted: memapsin 2, pH 4, 37° C., 20 minutes pre-incubation; read-out: M2Ki. A digest of the protocol: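 Kinetic fluorogenic assay: hydrolysis of the MCA/DNP-labelled APP Swedish-variant peptide FS-2 monitored as fluorescence rise at 37° C, pH 4, after 20 min enzyme–compound preincubation. Relative rates fitted with a tight-binding inhibitor model.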

Sequence of memapsin 2 (P56817 46-501): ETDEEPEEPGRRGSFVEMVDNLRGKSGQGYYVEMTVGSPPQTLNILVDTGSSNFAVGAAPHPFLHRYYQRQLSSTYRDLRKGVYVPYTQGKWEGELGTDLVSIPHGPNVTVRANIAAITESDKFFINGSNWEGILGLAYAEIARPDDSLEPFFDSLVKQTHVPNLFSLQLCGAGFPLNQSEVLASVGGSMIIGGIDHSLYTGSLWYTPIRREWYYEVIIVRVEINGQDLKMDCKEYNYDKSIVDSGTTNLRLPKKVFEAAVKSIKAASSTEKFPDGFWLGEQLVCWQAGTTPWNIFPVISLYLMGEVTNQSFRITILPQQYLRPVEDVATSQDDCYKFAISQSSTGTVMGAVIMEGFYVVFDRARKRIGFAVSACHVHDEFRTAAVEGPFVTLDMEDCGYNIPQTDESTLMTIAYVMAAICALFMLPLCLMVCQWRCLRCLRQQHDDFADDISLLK

Consider `Cc1csc(CN(C)C(=O)c2cccc(C(=O)N[C@@H](Cc3ccccc3)[C@H](O)CNCc3cc(C(C)C)nc(N)n3)c2)n1` [Compound 155, N1-((2S,3R)-4-((2-amino-6-isopropylpyrimidin-4-yl)methylamino)-3-hydroxy-1-phenylbutan-2-yl)-N3-methyl-N3-((4-methylthiazol-2-yl)methyl)isophthalamide], for which the IC50 (in general, the concentration that inhibits the measured activity by half) in test [1] is less than 1000 nM. Moreover, the Ki at memapsin 2 was less than 300 nM.
Regarding `Cc1csc(CN(C)C(=O)c2cccc(C(=O)N[C@@H](Cc3ccccc3)[C@H](O)CNCc3cncc(Br)c3)c2)n1` [Compound 158, N1-((2S,3R)-4-((5-bromopyridin-3-yl)methylamino)-3-hydroxy-1-phenylbutan-2-yl)-N3-methyl-N3-((4-methylthiazol-2-yl)methyl)isophthalamide], in test [1], the IC50 is less than 1000 nM. In addition, the Ki at memapsin 2 is less than 300 nM.
Taken in the same sequence, the figures for `CNc1nc(CNC[C@@H](O)[C@H](Cc2ccccc2)NC(=O)c2cccc(C(=O)N(C)Cc3nc(C)cs3)c2)cc(C(C)C)n1` [Compound 161, N1-((2S,3R)-3-hydroxy-4-((6-isopropyl-2-(methylamino)pyrimidin-4-yl)methylamino)-1-phenylbutan-2-yl)-N3-methyl-N3-((4-methylthiazol-2-yl)methyl)isophthalamide] were less than 1000 nM and less than 300 nM.
Taken in the same sequence, the figures for `Cc1csc(CN(C)C(=O)c2cc(C(=O)N[C@@H](Cc3ccccc3)[C@H](O)CNCc3cncc(C(C)C)c3)cc(N(C)C)c2)n1` [Compound 162, 5-(dimethylamino)-N1-((2S,3R)-3-hydroxy-4-((5-isopropylpyridin-3-yl)methylamino)-1-phenylbutan-2-yl)-N3-methyl-N3-((4-methylthiazol-2-yl)methyl)isophthalamide] were less than 1000 nM and less than 300 nM.
The matching figures for `COc1cccc(C(C)(C)NC[C@@H](O)[C@H](Cc2ccccc2)NC(=O)c2cccc(C(=O)N(C)Cc3nc(C)cs3)c2)c1` [Compound 163, N1-((2S,3R)-3-hydroxy-4-(2-(3-methoxyphenyl)propan-2-ylamino)-1-phenylbutan-2-yl)-N3-methyl-N3-((4-methylthiazol-2-yl)methyl)isophthalamide]: less than 1000 nM and less than 300 nM.
Turning to `Cc1csc(CN(C)C(=O)c2cccc(C(=O)N[C@@H](Cc3ccccc3)[C@H](O)CNCc3cccc(NCc4ccccc4)c3)c2)n1` [Compound 164, N1-((2S,3R)-4-(3-(benzylamino)benzylamino)-3-hydroxy-1-phenylbutan-2-yl)-N3-methyl-N3-((4-methylthiazol-2-yl)methyl)isophthalamide], the IC50 in test [1] was less than 1000 nM. In addition, on memapsin 2, the Ki was less than 300 nM.
The matching figures for `Cc1csc(CN(C)C(=O)c2cccc(C(=O)N[C@@H](Cc3ccccc3)[C@H](O)CNCc3cc(OS(C)(=O)=O)cc(C(C)C)c3)c2)n1` [Compound 165, 3-(((2R,3S)-2-hydroxy-3-(3-(methyl((4-methylthiazol-2-yl)methyl)carbamoyl)benzamido)-4-phenylbutylamino)methyl)-5-isopropylphenyl methanesulfonate]: less than 1000 nM and less than 300 nM.
The matching figures for `COc1cccc(NC[C@@H](O)[C@H](Cc2ccccc2)NC(=O)c2cccc(C(=O)N(C)Cc3nc(C)cs3)c2)c1` [Compound 166, N1-((2S,3R)-3-hydroxy-4-(3-methoxyphenylamino)-1-phenylbutan-2-yl)-N3-methyl-N3-((4-methylthiazol-2-yl)methyl)isophthalamide]: greater than 5000 nM and greater than 501 nM.
The matching figures for `CNc1cccc(CNC[C@@H](O)[C@H](Cc2ccccc2)NC(=O)c2cccc(C(=O)N(C)Cc3nc(C)cs3)c2)c1` [Compound 167, N1-((2S,3R)-3-hydroxy-4-(3-(methylamino)benzylamino)-1-phenylbutan-2-yl)-N3-methyl-N3-((4-methylthiazol-2-yl)methyl)isophthalamide]: less than 1000 nM and less than 300 nM.
For `C=C(C)c1cccc(CNC[C@@H](O)[C@H](Cc2ccccc2)NC(=O)c2cccc(C(=O)N(C)Cc3nc(C)cs3)c2)c1` [Compound 168, N1-((2S,3R)-3-hydroxy-1-phenyl-4-(3-(prop-1-en-2-yl)benzylamino)butan-2-yl)-N3-methyl-N3-((4-methylthiazol-2-yl)methyl)isophthalamide], the IC50 in test [1] is less than 1000 nM. At memapsin 2, the Ki was less than 300 nM.
As to `CCN(CC)c1cc(C(=O)N[C@@H](Cc2ccccc2)[C@H](O)CNCc2cccc(OC)c2)cc(C(=O)N(C)Cc2nc(C)cs2)c1` [Compound 169, 5-(diethylamino)-N1-((2S,3R)-3-hydroxy-4-(3-methoxybenzylamino)-1-phenylbutan-2-yl)-N3-methyl-N3-((4-methylthiazol-2-yl)methyl)isophthalamide], in test [1], the 50% inhibitory concentration (IC50) is less than 1000 nM. Moreover, the Ki at memapsin 2 is less than 300 nM.
Consider `Cc1csc(CN(C)C(=O)c2cccc(C(=O)N[C@@H](Cc3ccccc3)[C@H](O)CNCc3cncc(C#N)c3)c2)n1` [Compound 171, N1-((2S,3R)-4-((5-cyanopyridin-3-yl)methylamino)-3-hydroxy-1-phenylbutan-2-yl)-N3-methyl-N3-((4-methylthiazol-2-yl)methyl)isophthalamide], for which, in test [1], the IC50 was in the range of 1000 to 5000 nM. The Ki on memapsin 2 was in the range of 301 to 500 nM.
Taken in the same sequence, the figures for `CCN(CC)c1cc(C(=O)N[C@@H](Cc2ccccc2)[C@H](O)CNCc2cncc(C(C)C)c2)cc(C(=O)N(C)Cc2nc(C)cs2)c1` [Compound 172, 5-(diethylamino)-N1-((2S,3R)-3-hydroxy-4-((5-isopropylpyridin-3-yl)methylamino)-1-phenylbutan-2-yl)-N3-methyl-N3-((4-methylthiazol-2-yl)methyl)isophthalamide] were less than 1000 nM and less than 300 nM.
Turning to `Cc1csc(CN(C)C(=O)c2cccc(C(=O)N[C@@H](Cc3ccccc3)[C@H](O)CNCc3cccc(C(C)Cl)c3)c2)n1` (stereo partly drawn) [Compound 173, N1-((2S,3R)-4-(3-(1-chloroethyl)benzylamino)-3-hydroxy-1-phenylbutan-2-yl)-N3-methyl-N3-((4-methylthiazol-2-yl)methyl)isophthalamide], the IC50 in test [1] is less than 1000 nM. Moreover, the Ki on memapsin 2 is less than 300 nM.
With `COc1cccc(CNC[C@@H](O)[C@H](Cc2ccccc2)NC(=O)c2cc(C(=O)N(C)Cc3nc(C)cs3)cc(-c3ccccn3)c2)c1` [Compound 174, N1-((2S,3R)-3-hydroxy-4-(3-methoxybenzylamino)-1-phenylbutan-2-yl)-N3-methyl-N3-((4-methylthiazol-2-yl)methyl)-5-(pyridin-2-yl)isophthalamide], in test [1], the IC50 is less than 1000 nM. For the same compound, the Ki on memapsin 2 is less than 300 nM.
Taken in the same sequence, the figures for `Cc1csc(CN(C)C(=O)c2cccc(C(=O)N[C@@H](Cc3ccccc3)[C@H](O)CNCc3cc(CNS(C)(=O)=O)cc(C(C)C)c3)c2)n1` [Compound 175, N1-((2S,3R)-3-hydroxy-4-(3-isopropyl-5-(methylsulfonamidomethyl)benzylamino)-1-phenylbutan-2-yl)-N3-methyl-N3-((4-methylthiazol-2-yl)methyl)isophthalamide] were greater than 5000 nM and greater than 501 nM.
Take `Cc1csc(CN(C)C(=O)c2cc(CF)cc(C(=O)N[C@@H](Cc3ccccc3)[C@H](O)CNCc3cncc(C(C)C)c3)c2)n1` [Compound 176, 5-(fluoromethyl)-N1-((2S,3R)-3-hydroxy-4-((5-isopropylpyridin-3-yl)methylamino)-1-phenylbutan-2-yl)-N3-methyl-N3-((4-methylthiazol-2-yl)methyl)isophthalamide]: in test [1], the IC50 is less than 1000 nM. For the same compound, at memapsin 2, the Ki was less than 300 nM.
The matching figures for `Cc1csc(CN(C)C(=O)c2cc(C(=O)N[C@@H](Cc3ccccc3)[C@H](O)CNCc3cc(C(C)C)nc(N)n3)cc(-c3ncco3)c2)n1` [Compound 177, N1-((2S,3R)-4-((2-amino-6-isopropylpyrimidin-4-yl)methylamino)-3-hydroxy-1-phenylbutan-2-yl)-N3-methyl-N3-((4-methylthiazol-2-yl)methyl)-5-(oxazol-2-yl)isophthalamide]: less than 1000 nM and less than 300 nM.
Consider `Cc1csc(CN(C)C(=O)c2cc(C(=O)N[C@@H](Cc3ccccc3)[C@H](O)CNCc3cc(OS(C)(=O)=O)cc(C(C)C)c3)cc(N(C)C)c2)n1` [Compound 178, 3-(((2R,3S)-3-(3-(dimethylamino)-5-(methyl((4-methylthiazol-2-yl)methyl)carbamoyl)benzamido)-2-hydroxy-4-phenylbutylamino)methyl)-5-isopropylphenyl methanesulfonate], for which the IC50 in test [1] is less than 1000 nM. Also, the Ki on memapsin 2 was less than 300 nM.
The matching figures for `COc1cccc(CNC[C@@H](O)[C@H](Cc2ccccc2)NC(=O)c2cc(C(=O)N(C)Cc3nc(C)cs3)cc(N3CCCC3)c2)c1` [Compound 179, N1-((2S,3R)-3-hydroxy-4-(3-methoxybenzylamino)-1-phenylbutan-2-yl)-N3-methyl-N3-((4-methylthiazol-2-yl)methyl)-5-(pyrrolidin-1-yl)isophthalamide]: less than 1000 nM and less than 300 nM.
Taken in the same sequence, the figures for `Cc1csc(CN(C)C(=O)c2cc(C(=O)N[C@@H](Cc3ccccc3)[C@H](O)CNCc3cncc(C(C)C)c3)cc(N3CCCC3)c2)n1` [Compound 180, N1-((2S,3R)-3-hydroxy-4-((5-isopropylpyridin-3-yl)methylamino)-1-phenylbutan-2-yl)-N3-methyl-N3-((4-methylthiazol-2-yl)methyl)-5-(pyrrolidin-1-yl)isophthalamide] were less than 1000 nM and less than 300 nM.
